Patent US20240293439A1, “TREATMENT REGIMENS” (NuCana plc, priority 2017, published 2024)
“And” between values parts separate entries of the source, which are not always exact repeats. Identical values can stand only once. “Also recorded” adds a separate entry of the source.

Experiments:
[1] = in vivo
Procedure: The patients received NUC-3373, administered as a 30-minute to 2 hour intravenous injection on days 1, 8, 15 and 22 of a 28-day cycle regimen.
The cohorts treated to date received 125 mg/m^2, 250 mg/m^2, 500 mg/m^2 or 750 mg/m^2 NUC-3373 per administration.
Pharmacokinetic analysis of blood samples of the patients was then carried out.
Blood samples were collected on days 1 and 15 of a treatment cycle:
The blood samples should arrive in the lab within 2 hours of collection. Collect 8 ml of blood into CPT tubes (blood tubes should be centrifuged within 2 hours of blood collection). Remix the blood sample immediately prior to centrifugation by gently inverting the tube 8 to 10 times. Set centrifuge so that the start and finish is set to a slow acceleration (without break). Centrifuge at 18° C. for 20 minutes at 1,500 g. Remove sample from the centrifuge carefully. This will result in five layers: plasma (first); whitish cell (PBMC) layer [second]; polyester gel [third]; density solution [fourth] and, remaining granulocytes and RBCs [fifth]. Aspirate approximately half of the plasma without disturbing the cell layer. Collect the PBMC layer with a Pasteur Pipette and transfer to a 50 ml tube and add cold PBS (4° C.) to a final volume of 40 ml. Divide between two 50 ml tubes (20 ml per tube) and centrifuge for 5 minutes at 4° C. at 1,500 g. […]

[2] = comparison value; cited from earlier work
[3] = test system: thymidylate synthase (TS); assay: Intracellular dTMP, TS and dUMP levels in PBMCs of treated subjects (UPLC-MS, Western blot); assay type: in vivo, patients; conditions: for intracellular TS level and/or activity / intracellular dTMP level: cells (PBMCs) of treated subjects
Procedure: Remove sample from the centrifuge carefully.
(§1) Vortex-mix for 30 seconds. Leave sample on ice for 15 minutes.
UPLC-MS for was used to detect dTMP Western blot was used to detect TS.

[4] = biological target: T1, dihydropyrimidine dehydrogenase (DPD) (Homo sapiens, UniProt Q12882); conditions: catabolism in the liver; cited from earlier work
T1 construct: This is balanced by catabolism by dihydropyrimidine dehydrogenase (DPD) in the liver; host or cells: liver (of patients)
T1 sequence (Q12882 4-1025): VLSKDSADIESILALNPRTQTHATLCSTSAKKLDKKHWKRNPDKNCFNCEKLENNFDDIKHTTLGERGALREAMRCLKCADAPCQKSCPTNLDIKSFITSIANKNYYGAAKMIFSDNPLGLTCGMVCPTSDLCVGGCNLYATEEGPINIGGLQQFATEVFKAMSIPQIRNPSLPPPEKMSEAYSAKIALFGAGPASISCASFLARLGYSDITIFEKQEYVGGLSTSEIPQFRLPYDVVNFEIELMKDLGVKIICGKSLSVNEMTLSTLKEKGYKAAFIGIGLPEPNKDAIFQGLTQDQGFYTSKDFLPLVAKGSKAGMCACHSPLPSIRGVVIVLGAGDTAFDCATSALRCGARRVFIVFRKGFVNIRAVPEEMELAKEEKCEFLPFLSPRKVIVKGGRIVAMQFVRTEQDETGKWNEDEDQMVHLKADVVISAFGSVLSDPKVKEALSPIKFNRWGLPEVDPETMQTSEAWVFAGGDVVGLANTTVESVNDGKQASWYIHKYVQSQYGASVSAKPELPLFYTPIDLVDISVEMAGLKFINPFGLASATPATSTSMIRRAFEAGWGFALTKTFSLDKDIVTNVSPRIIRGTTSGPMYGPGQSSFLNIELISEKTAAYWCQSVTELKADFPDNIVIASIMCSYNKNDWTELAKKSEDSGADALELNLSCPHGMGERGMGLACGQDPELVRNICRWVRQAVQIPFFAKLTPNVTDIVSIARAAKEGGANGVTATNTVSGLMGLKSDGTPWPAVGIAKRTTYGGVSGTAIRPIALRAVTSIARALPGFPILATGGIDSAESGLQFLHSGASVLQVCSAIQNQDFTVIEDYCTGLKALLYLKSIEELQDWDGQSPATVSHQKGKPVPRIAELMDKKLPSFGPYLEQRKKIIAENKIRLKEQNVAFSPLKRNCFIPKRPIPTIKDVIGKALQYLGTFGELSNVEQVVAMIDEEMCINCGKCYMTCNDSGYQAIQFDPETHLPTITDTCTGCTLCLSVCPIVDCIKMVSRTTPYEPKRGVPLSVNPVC

[5] = patients treated with 5FU; cited from earlier work
[6] = formal dog toxicology studies; cited from earlier work
[7] = NuTide:301 clinical trial: occurrence of hand-foot syndrome; assay type: in vivo; conditions: 36 patients treated with NUC-3373, so far
Text: (§2) All patients have metastatic spread.

[8] = NuTide:301 study: detection of toxic byproducts FBAL and dhFU by UPLC-MS/MS after NUC-3373 administration; assay type: in vivo, patients; conditions: at the doses studied
Procedure: as §2, §1
UPLC-MS/MS was used to detect dhFU and FBAL

[9] = NuTide:301 Phase 1 study: pharmacokinetic analysis of NUC-3373 in blood plasma; assay type: in vivo; conditions: human, iv, patients with advanced solid tumors, 125-750 mg/m^2, 1:1 mixture of S and R epimers
Procedure: as §2
NUC-3373 is presented as a single dose intravenous injection in a clear vial containing 250 mg/ml NUC-3373 in a solution of dimethylacetamide (DMA) and normal saline in the ratio of 80:20. The product is a clear yellow solution, free from visible particles.
In the study all patients were treated with a 1:1 mixture of NUC-3373 S and R epimers.
Centrifuge the 4 ml blood sample at 1,200 g at 18° C. for 10 minutes. Using a sterile plastic pipette (pastette), remove the resulting plasma and transfer ˜1.0 ml plasma into each of 2 cryovials (2 ml).

SMILES	half-life of intracellular FUDR monophosphate ([1]; human) [h]	detectability of intracellular FUDR monophosphate at late time point [1]	plasma half-life of 5FU [2] [min]	intracellular TS level and/or activity [3]	intracellular dTMP level [3]	fraction of 5-fluorouracil broken down by DPD [4]	patients developing hand-foot syndrome [5]	tolerability compared with 5FU [6]	patients who developed hand-foot syndrome [7]	dihydrofluorouracil (dhFU) detected following NUC-3373 administration [8]	α-fluoro-β-alanine (FBAL) detected following NUC-3373 administration [8]	half-life [9] [min]	intracellular dUMP level ([3]; cells of treated subjects)
O=c1[nH]c(=O)n([C@H]2C[C@H](O)[C@@H](COP(=O)(O)O)O2)cc1F [FUDR monophosphate]	14.9	still detectable											
O=c1[nH]cc(F)c(=O)[nH]1 [5FU, 5-fluorouracil]			8 to 14	not observed	not observed	More than 85%	30-60% and 40-60%						
C[C@H](NP(=O)(OC[C@H]1O[C@@H](n2cc(F)c(=O)[nH]c2=O)CC1O)Oc1cccc2ccccc12)C(=O)OCc1ccccc1 (stereo partly drawn) [NUC-3373, 5-fluoro-2′-deoxyuridine-5′-O-[1-naphthyl (benzoxy-L-alaninyl)] phosphate]				deplete	deplete			significantly better tolerated than 5FU	none	undetectable	undetectable; also recorded: very low levels	582	increased accumulation
